Tests used:
Format in all cases: functional, cell-based
Bel-7402 = test: Cytotoxicity against human Bel7402 cells after 72 hrs by MTT assay; conditions: Bel-7402, 72 h
BGC-823 = test: Cytotoxicity against human BGC823 cells after 72 hrs by MTT assay; conditions: BGC-823, 72 h
HCT-8 = test: Cytotoxicity against human HCT8 cells after 72 hrs by MTT assay; conditions: HCT-8, 72 h
A2780 = test: Cytotoxicity against human A2780 cells after 72 hrs by MTT assay; conditions: A2780, 72 h
A549 = test: Cytotoxicity against human A549 cells after 72 hrs by MTT assay; conditions: A549, 72 h

What does the source list for `CN1C(=O)[C@]23SS[C@]1(CO)C(=O)N2[C@H]1Nc2ccccc2[C@@]1(c1c[nH]c2ccccc12)[C@@H]3O` [T988 C]?
IC50 (Bel-7402): 550 nM; IC50 (BGC-823): 670 nM; IC50 (HCT-8): 700 nM; IC50 (A2780): 480 nM; IC50 (A549): 1240 nM

How did the IC50 (Bel-7402) turn out when `CS[C@]1(CO)NC(=O)[C@](Cc2c[nH]c3ccccc23)(SC)NC1=O` [CHETOSEMINUDIN C] was run?
Its IC50 is over 10000 nM.

And the IC50 (BGC-823)?
The IC50 was over 10000 nM.

And the IC50 (HCT-8)?
The IC50 was over 10000 nM.

And the IC50 (A2780)?
Its IC50 is over 10000 nM.

And the IC50 (A549)?
The IC50 was over 10000 nM.

Which results are given for `CS[C@@]1(CO)C(=O)N2[C@H]3Nc4ccccc4C3([C@@]34c5ccccc5N[C@@H]3N3C(=O)[C@](CO)(SC)N(C)C(=O)[C@@]3(SC)[C@H]4O)[C@H](O)[C@]2(SC)C(=O)N1C` (stereo partly drawn) [CHETRACIN D]?
IC50 (Bel-7402): 810 nM; IC50 (BGC-823): 1830 nM; IC50 (HCT-8): 1060 nM; IC50 (A2780): 1650 nM; IC50 (A549): 140 nM

`CN1C(=O)[C@]23SS[C@@]1(CO)C(=O)N2[C@H]1Nc2ccccc2C1([C@@]12c4ccccc4N[C@@H]1N1C(=O)[C@]4(CO)SSS[C@]1(C(=O)N4C)[C@H]2O)[C@@H]3O` (stereo partly drawn) [CHETRACIN B] was tested. Which IC50 (Bel-7402) did it give?
Its IC50 is 3 nM.

What about the IC50 (BGC-823) of the same compound?
The IC50 was 11 nM.

And the IC50 (HCT-8)?
Its IC50 is 13 nM.

What about the IC50 (A2780) of the same compound?
The IC50 was 28 nM.

What about the IC50 (A549) of the same compound?
Its IC50 is 22 nM.

How did the IC50 (Bel-7402) turn out when `CN1C(=O)[C@]23SS[C@@]1(CO)C(=O)N2[C@H]1Nc2ccccc2C1([C@@]12c4ccccc4N[C@@H]1N1C(=O)[C@]4(CO)SS[C@]1(C(=O)N4C)[C@H]2O)[C@@H]3O` (stereo partly drawn) [MELINACIDIN IV] was run?
The IC50 was 5 nM.

And the IC50 (BGC-823)?
Its IC50 is 47 nM.

What about the IC50 (HCT-8) of the same compound?
Its IC50 is 52 nM.

What about the IC50 (A2780) of the same compound?
The IC50 was 54 nM.

What about the IC50 (A549) of the same compound?
Its IC50 is 22 nM.

For `COC1(CO)NC(=O)/C(=C/c2c[nH]c3ccccc23)NC1=O` (stereo not drawn) [OIDIOPERAZINE C], which IC50 (Bel-7402) is on record?
The IC50 was over 10000 nM.

And the IC50 (BGC-823)?
Its IC50 is over 10000 nM.

What about the IC50 (HCT-8) of the same compound?
Its IC50 is over 10000 nM.

And the IC50 (A2780)?
The IC50 was over 10000 nM.

What about the IC50 (A549) of the same compound?
Its IC50 is over 10000 nM.

Which results are given for `CN1C(=O)[C@]23SSS[C@@]1(CO)C(=O)N2[C@H]1Nc2ccccc2C1([C@@]12c4ccccc4N[C@@H]1N1C(=O)[C@]4(CO)SSS[C@]1(C(=O)N4C)[C@H]2O)[C@@H]3O` (stereo partly drawn) [CHETRACIN C]?
IC50 (Bel-7402): 380 nM; IC50 (BGC-823): 700 nM; IC50 (HCT-8): 490 nM; IC50 (A2780): 580 nM; IC50 (A549): 720 nM

Which results are given for `CON1C(=O)C(CO)NC(=O)C1(O)Cc1c[nH]c2ccccc12` (stereo not drawn) [OIDIOPERAZINE B]?
IC50 (Bel-7402): > 10000 nM; IC50 (BGC-823): > 10000 nM; IC50 (HCT-8): > 10000 nM; IC50 (A2780): > 10000 nM; IC50 (A549): > 10000 nM

How did the IC50 (Bel-7402) turn out when `CC(=O)O[C@H]1C(=O)[C@@]2(C)[C@H]([C@H](OC(=O)c3ccccc3)[C@]3(O)C[C@H](OC(=O)[C@H](O)[C@@H](NC(=O)c4ccccc4)c4ccccc4)C(C)=C1C3(C)C)[C@]1(OC(C)=O)CO[C@@H]1C[C@@H]2O` [PACLITAXEL] was run?
Its IC50 is 6 nM.

And the IC50 (BGC-823)?
The IC50 was under 1 nM.

And the IC50 (A2780)?
The IC50 was under 1 nM.

`CS[C@@]1(CO)C(=O)N2[C@H]3N(C=O)c4ccccc4[C@@]3(c3c[nH]c4ccccc34)[C@H](O)[C@]2(SC)C(=O)N1C` [OIDIOPERAZINE A] was tested. Which IC50 (Bel-7402) did it give?
Its IC50 is over 10000 nM.

What about the IC50 (BGC-823) of the same compound?
Its IC50 is over 10000 nM.

And the IC50 (HCT-8)?
Its IC50 is over 10000 nM.

What about the IC50 (A2780) of the same compound?
The IC50 was over 10000 nM.

And the IC50 (A549)?
The IC50 was over 10000 nM.

Which results are given for `CS[C@@]1(CO)C(=O)N2[C@H]3Nc4ccccc4[C@@]3(c3c[nH]c4ccccc34)[C@H](O)[C@]2(SC)C(=O)N1C` [T988 B]?
IC50 (Bel-7402): > 10000 nM; IC50 (BGC-823): > 10000 nM; IC50 (HCT-8): > 10000 nM; IC50 (A2780): > 10000 nM; IC50 (A549): > 10000 nM

How did the IC50 (Bel-7402) turn out when `O=C1N[C@@H](Cc2c[nH]c3ccccc23)C(=O)N[C@H]1CO` was run?
Its IC50 is over 10000 nM.

And the IC50 (BGC-823)?
The IC50 was over 10000 nM.

And the IC50 (HCT-8)?
Its IC50 is over 10000 nM.

And the IC50 (A2780)?
Its IC50 is over 10000 nM.

And the IC50 (A549)?
The IC50 was over 10000 nM.

With `CN1C(=O)[C@]23SSS[C@]1(CO)C(=O)N2[C@H]1Nc2ccccc2[C@@]1(c1c[nH]c2ccccc12)[C@@H]3O` as the compound, how does the IC50 (Bel-7402) read?
Its IC50 is 750 nM.

What about the IC50 (BGC-823) of the same compound?
Its IC50 is 1460 nM.

And the IC50 (HCT-8)?
Its IC50 is 1180 nM.

And the IC50 (A2780)?
Its IC50 is 420 nM.

And the IC50 (A549)?
Its IC50 is 1530 nM.

Which results are given for `C=C1NC(=O)C(Cc2c[nH]c3ccccc23)(OC)N(OC)C1=O` (stereo not drawn) [OIDIOPERAZINE D]?
IC50 (Bel-7402): > 10000 nM; IC50 (BGC-823): > 10000 nM; IC50 (HCT-8): > 10000 nM; IC50 (A2780): > 10000 nM; IC50 (A549): > 10000 nM

Source: ChEMBL document CHEMBL2046435, “Cytotoxic metabolites from the antarctic psychrophilic fungus Oidiodendron truncatum” (J Nat Prod, 2012)
